Measured values reported in publication PMC9321930, “Modelling the Human Blood–Brain Barrier in Huntington Disease” (International Journal of Molecular Sciences, 2022).
Read-outs that look alike come from different tables or passages of the source.

How the values were obtained:
all iBMECs = experiment: Inhibition of substrate transport by transporter inhibitors, all iBMECs; format: cell-based, human
Experimental: (§1) The measurement of TEER, transport studies, and the derivation of permeability coefficients were carried out as reported. In each filter, a paracellular marker (radiolabelled sucrose or LY) was added as internal control of the tightness of the monolayer. The amounts of radiotracer and fluorescent tracers were determined by liquid scintillation (Top Count-NXT, Microplate Scintillation and Luminescence counter from Perkin Elmer, Milan, Italy) and fluorescence spectrophotometry (SAFIRE TECAN, Microplate Fluorescence reader, Männedorf, Switzerland), respectively. In efflux and influx transport assays, before the addition of the compounds, filters were pre-incubated for 15 min at 37 °C with or without inhibitors and/or substrates: 2 µM elacridar (PGP inhibition), 2 µM of KO143 (BCRP inhibition), 10 µM JPH203 (LAT-1 inhibition), and 200 µM of phloretin (GLUT inhibition). Each test compound was assayed in triplicates. Transferrin from Human Serum, Alexa Fluor™ 594 Conjugate (T13343 Invitrogen™ from Thermo Fisher, Monza, Italy) was incubated (2.5 µM) in HBSS-20 mM Hepes pH 7.4 containing 1% BSA for 2 h, at 37 °C, and 5% CO2 and on ice at 4 °C. At the end of the incubation, aliquots from both compartments were collected and the fluorescent tracer was quantified.

[1] = Table S4; cited from earlier work
[2] = Transport assay (permeability) across iBMEC_33Q transwell BBB model; settings: female, human
[3] = Transport assay (permeability) across iBMEC_71Q transwell BBB model; settings: female, human
[4] = Transport assay (permeability) across iBMEC_109Q transwell BBB model; settings: female, human
GLUT = experiment: in vitro; settings: female, human
iBMEC_33Q [5] = experiment: Transport assay (permeability) across iBMEC_33Q transwell BBB model; settings: for Permeability iBMEC_33Q: Table 1, compound alone, mean ± SE, n > 6, compounds marked ^a calculated from Ptotal
iBMEC_71Q [6] = experiment: Transport assay (permeability) across iBMEC_71Q transwell BBB model; settings: for Permeability iBMEC_71Q: Table 1, compound alone, mean ± SE, n > 6, compounds marked ^a calculated from Ptotal
iBMEC_109Q [7] = experiment: Transport assay (permeability) across iBMEC_109Q transwell BBB model; settings: for Permeability iBMEC_109Q: Table 1, compound alone, mean ± SE, n > 6, compounds marked ^a calculated from Ptotal
iBMEC_33Q [8] = test system: iBMEC_33Q
iBMEC_71Q [9] = test system: iBMEC_71Q
iBMEC_109Q [10] = test system: iBMEC_109Q
iBMEC_33Q [11] = experiment: TNFα treatment, inflammatory gene expression (qRT-PCR), iBMEC_33Q; format: cell-based, human; settings: 50 ng/mL TNFα, 48 h, versus untreated cells
Experimental: (§2) To evaluate the self-renewal capacity and the pluripotency as well as the trilineage differentiation potential, mRNA was subjected to the hPSC scorecard assay (Cat. A15872, Thermo Fisher, Monza, Italy) after RNA extraction from iPSC colonies with RNeasy mini kit (Cat. 74106, Qiagen, Hilden, Germany). cDNA was obtained with High-capacity cDNA reverse transcription kit (Cat. 4374966, Thermo Fisher, Monza, Italy). The expression of inflammatory genes after TNFα treatment was evaluated using the TaqMan™ Array Human Inflammation Panel (Cat. 4378722, Applied Biosystem, Foster City, CA, USA). qRT-PCR was performed in QuantStudio 12 K Flex (Thermo Fisher, Monza, Italy). The analysis of the hPSC score was conducted with the hPSC Score Card Panel software.
(§3) To mimic a neuroinflammatory condition, cells in transwells were treated with 50 ng/mL of TNFα for 48 h before RNA extraction.

iBMEC_71Q [12] = experiment: TNFα treatment, inflammatory gene expression (qRT-PCR), iBMEC_71Q; format: cell-based, human; settings: 50 ng/mL TNFα, 48 h, versus untreated cells
Experimental: as §2, §3

iBMEC_109Q [13] = experiment: TNFα treatment, inflammatory gene expression (qRT-PCR), iBMEC_109Q; format: cell-based, human; settings: 50 ng/mL TNFα, 48 h, versus untreated cells
Experimental: as §2, §3

iBMECs 33Q = experiment: Receptor-mediated transcytosis of fluorescent transferrin, iBMEC 33Q; format: in vitro ADME, human; settings: basal compartment after 2 h, 2.5 µM, mean ± sd
Experimental: as §1

iBMECs 71Q = experiment: Receptor-mediated transcytosis of fluorescent transferrin, iBMEC 71Q; format: in vitro ADME, human; settings: for Transferrin transported: 71Q, basal compartment after 2 h, 2.5 µM, mean ± sd
Experimental: as §1

iBMECs 109Q = experiment: Receptor-mediated transcytosis of fluorescent transferrin, iBMEC 109Q; format: in vitro ADME, human; settings: for Transferrin transported: 109Q, basal compartment after 2 h, 2.5 µM, mean ± sd
Experimental: as §1

[14] = test system: rat cerebral microcirculation; settings: cited from earlier work

Nc1cc(COc2c(Cl)cc(C[C@H](N)C(=O)O)cc2Cl)c2oc(-c3ccccc3)nc2c1 [JPH203]
Reduction of leucine transport (all iBMECs; 10 µM JPH203, all models): about 80%

O=C(O)c1cc(=O)c2ccccc2[nH]1 [KYNA, kynurenic acid]
Human Kp,uu,CSF [1]: 0.024

N[C@@H](Cc1ccc(O)c(O)c1)C(=O)O [L-DOPA]
Human Kp,uu,CSF [1]: 0.49

N=C(N)NCCC[C@H](N)C(=O)O [arginine]
Human Kp,uu,CSF [1]: 0.28

CC(NC(C)(C)C)C(=O)c1cccc(Cl)c1 (stereo not drawn) [bupropion]
Human Kp,uu,CSF [1]: 1.11

Cn1c(=O)c2c(ncn2C)n(C)c1=O [caffeine]
Human Kp,uu,CSF [1]: 1.00

NC(=O)N1c2ccccc2C=Cc2ccccc21 [carbamazepine]
Human Kp,uu,CSF [1]: 0.24

CN(C)CCCC1(c2ccc(F)cc2)OCc2cc(C#N)ccc21 (stereo not drawn) [citalopram]
Human Kp,uu,CSF [1]: 1.77

O=C1OC2(c3ccc(O)cc3Oc3cc(O)ccc32)c2ccccc21 [fluorescein]
Papp [2]: 0.11 ± 0.01 ×10⁻⁶ cm/s
Papp [3]: 0.24 ± 0.02 ×10⁻⁶ cm/s
Papp [4]: 0.8 ± 0.01 ×10⁻⁶ cm/s

OC[C@H]1OC(O)[C@H](O)[C@@H](O)[C@@H]1O (stereo partly drawn) [glucose]
Human Kp,uu,CSF [1]: 0.65
Papp A→B (GLUT): 6.3 ×10⁻⁶ cm/s

N[C@@H](CCC(=O)O)C(=O)O [glutamate]
Efflux Ratio (iBMEC_33Q [5]; 33Q, no inhibitor): 1.8
Permeability A-B (iBMEC_33Q [5]; 33Q, no inhibitor, mean ± SD): 4.1 ± 0.2 ×10^−6 cm/s
Permeability B-A (iBMEC_33Q [5]; 33Q, no inhibitor, mean ± SD): 7.5 ± 0.5 ×10^−6 cm/s
Permeability iBMEC_33Q (iBMEC_33Q [5]): 4.1 ± 0.2 ×10^−6 cm/s
Efflux Ratio (iBMEC_71Q [6]; 71Q, no inhibitor): 2.0
Permeability A-B (iBMEC_71Q [6]; 71Q, no inhibitor, mean ± SD): 3.3 ± 0.1 ×10^−6 cm/s
Permeability B-A (iBMEC_71Q [6]; 71Q, no inhibitor, mean ± SD): 6.8 ± 0.6 ×10^−6 cm/s
Permeability iBMEC_71Q (iBMEC_71Q [6]): 3.3 ± 0.1 ×10^−6 cm/s
Efflux Ratio (iBMEC_109Q [7]; 109Q, no inhibitor): 1.3
Permeability A-B (iBMEC_109Q [7]; 109Q, no inhibitor, mean ± SD): 7.2 ± 0.7 ×10^−6 cm/s
Permeability B-A (iBMEC_109Q [7]; 109Q, no inhibitor, mean ± SD): 9.0 ± 0.5 ×10^−6 cm/s
Permeability iBMEC_109Q (iBMEC_109Q [7]): 7.2 ± 0.7 ×10^−6 cm/s

CC(O)C(=O)O (stereo not drawn) [lactate]
Permeability iBMEC_33Q (iBMEC_33Q [8]): 53.8 ± 6.7 ×10^−6 cm/s
Permeability iBMEC_71Q (iBMEC_71Q [9]): 53.2 ± 3.6 ×10^−6 cm/s
Permeability iBMEC_109Q (iBMEC_109Q [10]): 52.6 ± 5.7 ×10^−6 cm/s

CC(C)C[C@H](N)C(=O)O [leucine]
Human Kp,uu,CSF [1]: 0.12

CN(Cc1cnc2nc(N)nc(N)c2n1)c1ccc(C(=O)N[C@@H](CCC(=O)O)C(=O)O)cc1 [methotrexate]
Human Kp,uu,CSF [1]: 0.02

N[C@@H](Cc1ccccc1)C(=O)O [phenylalanine]
Human Kp,uu,CSF [1]: 0.28
Papp [2]: 25.8 ± 1.5 ×10⁻⁶ cm/s
Papp [3]: 21.4 ± 1.4 ×10⁻⁶ cm/s
Papp [4]: 30.4 ± 3 ×10⁻⁶ cm/s

O=C1NC(=O)C(c2ccccc2)(c2ccccc2)N1 [phenytoin]
Human Kp,uu,CSF [1]: 0.19
Papp [2]: 18.6 ± 0.2 ×10⁻⁶ cm/s
Papp [3]: 20.9 ± 1 ×10⁻⁶ cm/s
Papp [4]: 27.7 ± 1.5 ×10⁻⁶ cm/s

O=C(CCc1ccc(O)cc1)c1c(O)cc(O)cc1O [phloretin]
inhibition at 200 µM (all iBMECs; Homo sapiens, 200 µM phloretin, both directions (apical to basal and basal to apical), all iBMECs, read-out: Inhibition of glucose transport): 50 to 60%

TNFα
Upregulation of ICAM-1 expression after TNFα treatment (iBMEC_33Q [11]; 33Q): 9 fold
Upregulation of VCAM1 expression after TNFα treatment (iBMEC_33Q [11]; iBMEC 33Q): more than 40 fold
Upregulation of ICAM-1 expression after TNFα treatment (iBMEC_71Q [12]; 71Q): about 2 fold
Upregulation of VCAM1 expression after TNFα treatment (iBMEC_71Q [12]; iBMEC 71Q): more than 40 fold
Upregulation of ICAM-1 expression after TNFα treatment (iBMEC_109Q [13]; 109Q): about 2 fold
Upregulation of VCAM1 expression after TNFα treatment (iBMEC_109Q [13]; iBMEC_109Q): none

Transferrin: Transferrin from Human Serum, Alexa Fluor 594 Conjugate
Transferrin transported (iBMECs 33Q; 4°C): 2.8 ± 0.4 ng
Transferrin transported (iBMECs 33Q; 37°C): 4.1 ± 0.7 ng
Transferrin transported (iBMECs 71Q; 4°C): 3.7 ± 0.3 ng
Transferrin transported (iBMECs 71Q; 37°C): 7.3 ± 0.4 ng
Higher level of basal accumulation of transferrin (iBMECs 71Q; iBMEC_71Q versus healthy model): ~2 fold
Transferrin transported (iBMECs 109Q; 4°C): 4.0 ± 1.0 ng
Transferrin transported (iBMECs 109Q; 37°C): 49.0 ± 13.0 ng
Higher level of basal accumulation of transferrin (iBMECs 109Q; iBMEC_109Q versus healthy model): about 5 fold

[D-Ala2]deltorphin-II
Permeability iBMEC_33Q (iBMEC_33Q [5]): 0.77 ± 0.08 ×10^−6 cm/s
Permeability iBMEC_71Q (iBMEC_71Q [6]): 0.92 ± 0.01 ×10^−6 cm/s
Permeability iBMEC_109Q (iBMEC_109Q [7]): 1.01 ± 0.02 ×10^−6 cm/s

lucifer yellow
Efflux Ratio (iBMEC_33Q [8]): 0.9
LY permeability, time course (iBMEC_33Q [8]): ≥ 0.5 ×10⁻⁶ cm/s
Permeability A-B (iBMEC_33Q [8]): 0.23 ± 0.02 ×10^−6 cm/s
Permeability B-A (iBMEC_33Q [8]): 0.21 ± 0.04 ×10^−6 cm/s
Permeability iBMEC_33Q, paracellular markers (iBMEC_33Q [8]): 2.3 ± 0.2 x10^-7 cm/s
Efflux Ratio (iBMEC_71Q [9]): 0.9
LY permeability, time course (iBMEC_71Q [9]): ≥ 0.5 ×10⁻⁶ cm/s
Permeability A-B (iBMEC_71Q [9]): 0.37 ± 0.03 ×10^−6 cm/s
Permeability B-A (iBMEC_71Q [9]): 0.34 ± 0.06 ×10^−6 cm/s
Permeability iBMEC_71Q, paracellular markers (iBMEC_71Q [9]): 3.7 ± 0.3 x10^-7 cm/s
Efflux Ratio (iBMEC_109Q [10]): 1.0
LY permeability, time course (iBMEC_109Q [10]): exceeded 5 × 10^−7 cm/s
Permeability A-B (iBMEC_109Q [10]): 0.70 ± 0.03 ×10^−6 cm/s
Permeability B-A (iBMEC_109Q [10]): 0.70 ± 0.1 ×10^−6 cm/s
Permeability iBMEC_109Q, paracellular markers (iBMEC_109Q [10]): 7.0 ± 0.3 x10^-7 cm/s
Permeability P in vivo [14]: 1 − 2 × 10^−7 cm/s
